US7244431B2, “Allergy vaccines and their preparation” (priority 2000, dated 2007)

Experiments:
[1] = system: IgE antibodies in sera from birch pollen allergic patients; test: ELISA detection of peptide- and rBet v 1-specific IgE antibodies; type: binding, human
In short: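 Sera from 60 birch pollen allergic patients (rhinoconjunctivitis and/or asthma; skin prick and CAP RAST characterized) plus one non-atopic individual, diluted 1:3, incubated overnight at 4 °C on coated plates. Bound IgE detected with 1:1000 alkaline-phosphatase-coupled mouse anti-human IgE.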

[2] = system: birch pollen allergic patients; test: Skin prick testing of allergic patients; type: in vivo, human; details: 100 μg/ml
Experimental: SPTs were performed on the individuals forearms as described ([…]. et al. (1997) J. Clin Invest. 99, 1673-168; Dreborg S: (1989) J. Am. Acad. DerMatol. 21, 820-821). […] In addition standardized skin prick solutions (birch pollen extract and histamine) (Allergopharma, Reinbek, Germany) were tested. Reactions were recorded 20 minutes after SPT by photography and by transferring the ballpoint pen-surrounded wheal area with a scotch tape to paper.

Question: Which results are given for “MGVFNYETETTSVIPAARLFKAFIC [Peptide P1, Bet v 1-derived synthetic peptide, position aa 1-24, one cysteine added]”?
Answer: IgE (OD) ([1]; serum of NHS, non-allergic control individual): — (Dashes indicate reactivities below the cut-off level (OD=0.050)); IgE (OD) ([1]; serum of patient 1): — (Dashes indicate reactivities below the cut-off level (OD=0.050)); IgE (OD) ([1]; serum of patient 2): — (Dashes indicate reactivities below the cut-off level (OD=0.050)); IgE (OD) ([1]; serum of patient 3): — (Dashes indicate reactivities below the cut-off level (OD=0.050)); IgE (OD) ([1]; serum of patient 4): — (Dashes indicate reactivities below the cut-off level (OD=0.050)); IgE (OD) ([1]; serum of patient 5): — (Dashes indicate reactivities below the cut-off level (OD=0.050)); IgE (OD) ([1]; serum of patient 6): — (Dashes indicate reactivities below the cut-off level (OD=0.050)); IgE (OD) ([1]; serum of patient 7): — (Dashes indicate reactivities below the cut-off level (OD=0.050)); IgE (OD) ([1]; serum of patient 8): — (Dashes indicate reactivities below the cut-off level (OD=0.050)); IgE (OD) ([1]; serum of patient 9): — (Dashes indicate reactivities below the cut-off level (OD=0.050)); IgE (OD) ([1]; serum of patient 10): — (Dashes indicate reactivities below the cut-off level (OD=0.050)); IgE (OD) ([1]; serum of patient 11): — (Dashes indicate reactivities below the cut-off level (OD=0.050)); IgE (OD) ([1]; serum of patient 12): — (Dashes indicate reactivities below the cut-off level (OD=0.050)); IgE (OD) ([1]; serum of patient 13): — (Dashes indicate reactivities below the cut-off level (OD=0.050)); IgE (OD) ([1]; serum of patient 14): — (Dashes indicate reactivities below the cut-off level (OD=0.050)); IgE (OD) ([1]; serum of patient 15): — (Dashes indicate reactivities below the cut-off level (OD=0.050)); IgE (OD) ([1]; serum of patient 16): — (Dashes indicate reactivities below the cut-off level (OD=0.050)); IgE (OD) ([1]; serum of patient 17): — (Dashes indicate reactivities below the cut-off level (OD=0.050)); IgE (OD) ([1]; serum of patient 18): — (Dashes indicate reactivities below the cut-off level (OD=0.050)); IgE (OD) ([1]; serum of patient 19): — (Dashes indicate reactivities below the cut-off level (OD=0.050)); IgE (OD) ([1]; serum of patient 20): — (Dashes indicate reactivities below the cut-off level (OD=0.050)); IgE (OD) ([1]; serum of patient 21): — (Dashes indicate reactivities below the cut-off level (OD=0.050)); IgE (OD) ([1]; serum of patient 22): — (Dashes indicate reactivities below the cut-off level (OD=0.050)); IgE (OD) ([1]; serum of patient 23): — (Dashes indicate reactivities below the cut-off level (OD=0.050)); IgE (OD) ([1]; serum of patient 24): — (Dashes indicate reactivities below the cut-off level (OD=0.050)); IgE (OD) ([1]; serum of patient 25): — (Dashes indicate reactivities below the cut-off level (OD=0.050)); IgE (OD) ([1]; serum of patient 26): — (Dashes indicate reactivities below the cut-off level (OD=0.050)); IgE (OD) ([1]; serum of patient 27): — (Dashes indicate reactivities below the cut-off level (OD=0.050)); IgE (OD) ([1]; serum of patient 28): — (Dashes indicate reactivities below the cut-off level (OD=0.050)); IgE (OD) ([1]; serum of patient 29): — (Dashes indicate reactivities below the cut-off level (OD=0.050)); IgE (OD) ([1]; serum of patient 30): — (Dashes indicate reactivities below the cut-off level (OD=0.050)); IgE (OD) ([1]; serum of patient 31): — (Dashes indicate reactivities below the cut-off level (OD=0.050)); IgE (OD) ([1]; serum of patient 32): — (Dashes indicate reactivities below the cut-off level (OD=0.050)); IgE (OD) ([1]; serum of patient 33): — (Dashes indicate reactivities below the cut-off level (OD=0.050)); IgE (OD) ([1]; serum of patient 34): — (Dashes indicate reactivities below the cut-off level (OD=0.050)); IgE (OD) ([1]; serum of patient 35): — (Dashes indicate reactivities below the cut-off level (OD=0.050)); IgE (OD) ([1]; serum of patient 36): — (Dashes indicate reactivities below the cut-off level (OD=0.050)); IgE (OD) ([1]; serum of patient 37): — (Dashes indicate reactivities below the cut-off level (OD=0.050)); IgE (OD) ([1]; serum of patient 38): — (Dashes indicate reactivities below the cut-off level (OD=0.050)); IgE (OD) ([1]; serum of patient 39): — (Dashes indicate reactivities below the cut-off level (OD=0.050)); IgE (OD) ([1]; serum of patient 40): — (Dashes indicate reactivities below the cut-off level (OD=0.050)); IgE (OD) ([1]; serum of patient 41): — (Dashes indicate reactivities below the cut-off level (OD=0.050)); IgE (OD) ([1]; serum of patient 42): — (Dashes indicate reactivities below the cut-off level (OD=0.050)); IgE (OD) ([1]; serum of patient 43): — (Dashes indicate reactivities below the cut-off level (OD=0.050)); IgE (OD) ([1]; serum of patient 44): — (Dashes indicate reactivities below the cut-off level (OD=0.050)); IgE (OD) ([1]; serum of patient 45): — (Dashes indicate reactivities below the cut-off level (OD=0.050)); IgE (OD) ([1]; serum of patient 46): — (Dashes indicate reactivities below the cut-off level (OD=0.050)); IgE (OD) ([1]; serum of patient 47): — (Dashes indicate reactivities below the cut-off level (OD=0.050)); IgE (OD) ([1]; serum of patient 48): — (Dashes indicate reactivities below the cut-off level (OD=0.050)); IgE (OD) ([1]; serum of patient 49): — (Dashes indicate reactivities below the cut-off level (OD=0.050)); IgE (OD) ([1]; serum of patient 50): — (Dashes indicate reactivities below the cut-off level (OD=0.050)); IgE (OD) ([1]; serum of patient 51): — (Dashes indicate reactivities below the cut-off level (OD=0.050)); IgE (OD) ([1]; serum of patient 52): — (Dashes indicate reactivities below the cut-off level (OD=0.050)); IgE (OD) ([1]; serum of patient 53): — (Dashes indicate reactivities below the cut-off level (OD=0.050)); IgE (OD) ([1]; serum of patient 54): — (Dashes indicate reactivities below the cut-off level (OD=0.050)); IgE (OD) ([1]; serum of patient 55): — (Dashes indicate reactivities below the cut-off level (OD=0.050)); IgE (OD) ([1]; serum of patient 56): — (Dashes indicate reactivities below the cut-off level (OD=0.050)); IgE (OD) ([1]; serum of patient 57): — (Dashes indicate reactivities below the cut-off level (OD=0.050)); IgE (OD) ([1]; serum of patient 58): — (Dashes indicate reactivities below the cut-off level (OD=0.050)); IgE (OD) ([1]; serum of patient 59): — (Dashes indicate reactivities below the cut-off level (OD=0.050)); IgE (OD) ([1]; serum of patient 60): — (Dashes indicate reactivities below the cut-off level (OD=0.050)); mean wheal diameter ([2]; individual 1): 0 mm; mean wheal diameter ([2]; individual 2): 0 mm; mean wheal diameter ([2]; individual 3): 0 mm; mean wheal diameter ([2]; individual 4): 0 mm; mean wheal diameter ([2]; individual 5): 0 mm; mean wheal diameter ([2]; individual 6 (allergic, without birch pollen allergy)): 0 mm
